The text below walks through data of US9518038B2, “Condensation product of theanine derivative and carboxylic acid coumarin derivative, its intermediate, preparation method and use thereof” (SHANDONG YINGDONG YINGHAO BIOTECHNOLOGY, INC., priority 2012, dated 2016).

In one assay the test system is MMP-2. The assay can be described thus: Western Blotting, MMP2 level. Type of assay: cell-based. As to conditions: human liver cancer cells, Lewis lung cancer cells and other cancer cell lines and tumor tissues, read-out: Effective concentration (IC50) for inhibition of MMP2. The text has this:
(§1) Antibodies: primary antibodies of VEGFR, EGFR, c-Met, K-Ras, H-Ras, Akt, NF-κB, Cyclin D1, ER-alpha, Dvl-1, Dvl-2, Dvl-3, MMP-9, MMP2, β-catenin, Bcl-2, Bax, p53, p21, E-cadherin and Caspase3 protein, purchased from American Cell Signaling Technology Company and Santa Cruz Technology Company; and H3 acetylation, H4 acetylation and HDAC (HDAC3, HDAC4 and the like) Antibody Sample Kits, purchased from Cell Signaling Technology Company of the U.S.
(§2) (3) polyacrylamide gel electrophoresis (SDS-PAGE): an equal amount of protein lysate sample was used to separate protein, film transfer, and blocking, treated with appropriate primary antibodies and secondary antibodies in sequence, and the film was washed, then the color was developed with ECL kit, and a blot protein band was detected by exposure of an X-ray film; and a Gel-Pro Analyzer was used for quantitative analysis of gray degree, optical density value of the control group and the drug treatment group in various concentration were respectively compared with that of internal reference, the obtained ratios were respectively compared with the control group, and the protein expression level was semi-quantified.

The test system of the next assay is ER-alpha. Kind of assay: Western Blotting, ER-alpha level. Type of assay: cell-based. The following applies: human liver cancer cells, Lewis lung cancer cells and other cancer cell lines and tumor tissues, read-out: Effective concentration (IC50) for inhibition of ER-alpha.
Description: as §1, §2
Background: In western blotting, separated proteins are transferred to a membrane and probed.

Another assay has as its system Dvl-3. Kind of assay: Western Blotting, Dvl-3 level. Type of assay: cell-based. As to conditions: human liver cancer cells, Lewis lung cancer cells and other cancer cell lines and tumor tissues, read-out: Effective concentration (IC50) for inhibition of DVl-3.
Description: as §1, §2

The next assay has as its target T1, EZH2 (Mus musculus, UniProt Q61188).
T1 construct: the EZH2 enzyme was replaced with tumor protein extracts in each group; from tissue; host or cells: Lewis lung cancer tumours from treated mice
The assay can be described thus: EZH2 enzyme activity in protein extracts of LLC tumors of treated mice (EZH2 Assay Kit). As to conditions: LLC tumor grown in vivo; tumors excised 6 h after medication; SAHA 25 mg/kg.

The subject of the next assay is HDAC4. Kind of assay: HDAC4 enzyme activity in nuclear extracts of LLC tumors of treated mice. As to conditions: LLC tumor grown in vivo; second value of the pair HDAC3 and HDAC4; SAHA 25 mg/kg.
A further assay deals with HDAC3. Kind of assay: HDAC3 enzyme activity in nuclear extracts of LLC tumors of treated mice. As to conditions: LLC tumor grown in vivo; first value of the pair HDAC3 and HDAC4; SAHA 25 mg/kg.

SMILES strings stand for the structures. pIC50: −log10 of the molar value. Marks after values point to notes of the source that are not given here.

T1 sequence (Q61188 whole entry): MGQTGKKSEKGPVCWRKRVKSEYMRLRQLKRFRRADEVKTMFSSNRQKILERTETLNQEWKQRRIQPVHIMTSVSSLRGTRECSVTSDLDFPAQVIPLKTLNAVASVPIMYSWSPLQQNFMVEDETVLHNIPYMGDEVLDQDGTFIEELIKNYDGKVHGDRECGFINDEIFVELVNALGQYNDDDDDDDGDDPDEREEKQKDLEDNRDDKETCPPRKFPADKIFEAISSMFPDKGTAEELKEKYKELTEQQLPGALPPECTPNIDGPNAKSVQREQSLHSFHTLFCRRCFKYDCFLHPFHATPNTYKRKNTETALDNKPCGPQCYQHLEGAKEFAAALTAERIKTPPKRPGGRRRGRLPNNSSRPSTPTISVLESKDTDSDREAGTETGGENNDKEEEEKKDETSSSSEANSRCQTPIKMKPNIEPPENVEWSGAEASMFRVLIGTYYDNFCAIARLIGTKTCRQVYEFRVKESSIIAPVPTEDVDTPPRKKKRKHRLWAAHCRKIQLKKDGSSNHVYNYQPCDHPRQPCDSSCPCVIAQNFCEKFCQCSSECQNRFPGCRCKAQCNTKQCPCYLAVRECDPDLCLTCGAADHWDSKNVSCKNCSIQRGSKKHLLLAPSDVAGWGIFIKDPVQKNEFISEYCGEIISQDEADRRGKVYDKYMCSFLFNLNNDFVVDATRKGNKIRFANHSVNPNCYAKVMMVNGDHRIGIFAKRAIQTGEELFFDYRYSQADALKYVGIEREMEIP
T1 sequence (Q921E6 whole entry partner): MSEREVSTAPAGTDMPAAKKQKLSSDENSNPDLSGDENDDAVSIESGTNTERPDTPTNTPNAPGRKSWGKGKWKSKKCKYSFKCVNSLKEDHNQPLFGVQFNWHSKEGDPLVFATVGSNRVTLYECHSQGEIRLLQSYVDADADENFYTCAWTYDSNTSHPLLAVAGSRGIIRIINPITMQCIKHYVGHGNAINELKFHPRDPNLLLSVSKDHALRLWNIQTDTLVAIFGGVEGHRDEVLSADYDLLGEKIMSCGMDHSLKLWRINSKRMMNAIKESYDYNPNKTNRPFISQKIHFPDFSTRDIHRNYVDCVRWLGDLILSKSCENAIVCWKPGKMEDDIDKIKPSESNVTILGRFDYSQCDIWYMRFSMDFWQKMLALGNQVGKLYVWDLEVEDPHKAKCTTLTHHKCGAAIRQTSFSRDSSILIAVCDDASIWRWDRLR
T1 sequence (Q80U70 whole entry partner): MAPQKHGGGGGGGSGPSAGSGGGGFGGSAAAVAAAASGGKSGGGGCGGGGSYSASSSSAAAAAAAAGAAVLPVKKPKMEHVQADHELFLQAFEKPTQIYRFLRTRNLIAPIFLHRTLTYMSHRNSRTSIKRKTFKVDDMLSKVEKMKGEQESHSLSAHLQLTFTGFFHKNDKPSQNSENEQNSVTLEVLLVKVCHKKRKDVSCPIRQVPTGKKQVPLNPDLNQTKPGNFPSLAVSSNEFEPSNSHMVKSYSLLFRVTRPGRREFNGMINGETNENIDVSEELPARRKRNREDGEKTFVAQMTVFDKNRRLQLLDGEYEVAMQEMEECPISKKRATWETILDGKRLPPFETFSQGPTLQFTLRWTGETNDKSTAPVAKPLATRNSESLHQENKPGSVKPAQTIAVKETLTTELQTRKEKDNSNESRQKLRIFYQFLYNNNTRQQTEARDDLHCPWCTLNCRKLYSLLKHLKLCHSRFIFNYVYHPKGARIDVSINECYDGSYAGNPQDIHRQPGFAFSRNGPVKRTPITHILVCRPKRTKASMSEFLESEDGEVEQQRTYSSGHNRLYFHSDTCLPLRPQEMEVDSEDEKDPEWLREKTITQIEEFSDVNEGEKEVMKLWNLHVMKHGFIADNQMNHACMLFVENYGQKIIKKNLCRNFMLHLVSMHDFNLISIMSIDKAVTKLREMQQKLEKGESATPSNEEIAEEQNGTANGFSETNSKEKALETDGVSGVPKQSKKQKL
Description for HDAC3: (§3) For the detection of the effect of the drugs on enzyme activity of EZH2 and HDAC of in-vivo tumors, the tumors were separately excised after 6 h of medication, total proteins and nucleoproteins were extracted separately to detect and analyze the activity of the enzyme.
(§4) (2) 50 μl of diluted sample solution was added into each reaction well, the plate was sealed with a plate-sealing film and reacted at room temperature for 30 min;
(§5) (3) the plate-sealing film was carefully peeled off, the liquid was removed, dried, 150 μl of washing liquid was added into each well, stood for 30 s, then the liquid was removed, repeated twice, and dried;
(§6) (4) 2 μl of HDAC enzyme or tumor tissue nuclear extracts was respectively uniformly mixed with 28 μl of diluted sample solution, added into the wells, the plate was sealed with the plate-sealing film and reacted at 37° C. for 60 min;
(§7) (5) the plate was washed for three times, wherein the operation was the same as that in (3); and a diluted antibody capture working solution was added into each reaction well according to 50 μl/well and reacted on a shaking bed at room temperature for 60 min; […]
(§8) (10) the light absorbance (OD value) of each well was measured in sequence at the wavelength of 450 nm; wherein the measurement should be performed within 15 min after addition of the stop solution; and
Description for HDAC4: as §3, §4, §5, §6, §7, §8

As to `CCNC(=O)CC[C@@H](NC(=O)c1cc2cc(Br)cc(Br)c2oc1=O)C(=O)OCC` [Compound Ih, (R)-2-(6,8-dibromo-2-oxo-2H-benzopyran-3-carboxamido)-5-ethylamino-5-oxo-pentanoic ethyl ester], the pIC50 in the assay with MMP-2 was greater than 4.30; in the assay with ER-alpha it was greater than 4.00; in the assay on Dvl-3 it was greater than 4.00.
As to `CCNC(=O)CC[C@@H](NC(=O)c1cc2cc(Cl)cc(Cl)c2oc1=O)C(=O)OCC` [Compound Ig, (R)-2-(6,8-dichloro-2-oxo-2H-benzopyran-3-carboxamido)-5-ethylamino-5-oxo-pentanoic ethyl ester], the pIC50 with MMP-2 was greater than 4.30; with ER-alpha, greater than 4.00; in the assay with Dvl-3, greater than 4.00.
Turning to `CCNC(=O)CCC(NC(=O)c1cc2ccccc2oc1=O)C(=O)OC` (stereo not drawn) [Compound Ia, methyl 5-ethylamino-5-oxo-2-(2-oxo-2H-benzopyran-3-carboxamido)pentanoate], the “decrease of EZH2 enzyme activity/inhibition rate” value at EZH2 is listed as 52%(LLC)-. Besides, in the assay on HDAC4, the “decrease of HDAC4 enzyme activity/inhibition rate” value is recorded as 52%*(LLC)-. The “decrease of HDAC3 enzyme activity/inhibition rate” value in the assay with HDAC3 came to 55%* and.
